Earlier results, collected in publication PMC9182199, “Borylated 2,3,4,5-Tetrachlorophthalimide and Their 2,3,4,5-Tetrachlorobenzamide Analogues: Synthesis, Their Glycosidase Inhibition and Anticancer Properties in View to Boron Neutron Capture Therapy” (Molecules, 2022).

Assays:
maltase = molecular target: maltase; parameters: method as in PMID 18254235; settings: cited from earlier work
yeast α-glucosidase = molecular target: T1, yeast α-glucosidase (Saccharomyces cerevisiae, UniProt P53341); parameters: method as in PMID 18254235; settings: cited from earlier work
T1 construct: purchased Sigma

sucrase = system: sucrase; parameters: method as in PMID 18254235; settings: cited from earlier work
human [1] = settings: 5 min; cited from earlier work
[2] = cited from earlier work
human [3] = settings: oral; cited from earlier work
rat = system: rat; parameters: method as in earlier work; settings: oral; cited from earlier work

T1 sequence (P53341 whole entry): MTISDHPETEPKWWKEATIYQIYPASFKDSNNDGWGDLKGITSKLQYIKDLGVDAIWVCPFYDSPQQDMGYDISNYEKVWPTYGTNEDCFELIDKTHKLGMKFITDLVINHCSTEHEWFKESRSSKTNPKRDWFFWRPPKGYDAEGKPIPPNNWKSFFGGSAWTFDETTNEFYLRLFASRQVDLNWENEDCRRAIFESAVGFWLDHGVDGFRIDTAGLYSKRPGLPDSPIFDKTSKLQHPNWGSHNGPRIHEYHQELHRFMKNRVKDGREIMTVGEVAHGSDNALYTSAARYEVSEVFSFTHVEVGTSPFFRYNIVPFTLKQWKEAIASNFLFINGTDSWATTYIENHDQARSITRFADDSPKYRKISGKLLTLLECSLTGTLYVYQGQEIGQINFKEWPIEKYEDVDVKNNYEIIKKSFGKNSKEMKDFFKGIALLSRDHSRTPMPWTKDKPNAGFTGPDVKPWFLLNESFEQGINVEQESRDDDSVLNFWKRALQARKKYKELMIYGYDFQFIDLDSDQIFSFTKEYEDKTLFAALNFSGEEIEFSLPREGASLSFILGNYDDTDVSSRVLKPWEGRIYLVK

For `O=C1c2ccccc2C(=O)N1c1ccc([N+](=O)[O-])cc1[N+](=O)[O-]` [N-(2,4-dinitrophenyl)phthalimide], the IC50 (maltase) is listed as 51 µM, the IC50 (yeast α-glucosidase) is listed as 158 µM and the inhibition of sucrase (sucrase) is listed as “no inhibition”.

For `c1ccccc1` [benzene], the “LCLO (lethal concentration)” value (human [1]) is given as 20,000 ppm, the “Immediately Dangerous to Life and Health concentration” value [2] is given as 500 ppm and the “Recommended Exposure Limit” value [2] is given as 0.1 ppm. The “LD50 (lethal dose)” value (human [3]) was 125 mg/kg.

In the case of `OB(O)c1ccccc1` [phenylboronic acid], the LD50 (rat) is given as 740 mg/kg.
